Reference: patent US20120184514A1, “VITAMIN D COMPOUNDS AND METHODS FOR PREPARING SAME” (Vitamin Derivatives Inc., priority 2009, published 2012)

Assay: Thermogravimetric analysis of a 1α-hydroxy-vitamin D3 sample
Format: physicochemical
Conditions: heated under nitrogen at 10 °C/min
Method: Thermogravimetric analysis of a 1α-hydroxy-vitamin D3 sample was performed using a TA Instruments 2950 thermogravimetric analyzer (available from TA Instruments of New Castle, Del.). The sample was placed in an aluminum sample pan and inserted into the thermogravimetric furnace. The furnace was heated under nitrogen at a rate of 10 ° C./min, from room temperature to a final temperature of 350° C. Nickel and Alumel™ (available from Hoskins Manufacturing Company, Novi, Mich.) were used as calibration standards. […] (See FIG. 6).

weight loss (thermogravimetric thermogram) (from 25° C. to 150° C.): 0.09% | decomposition temperature (thermogravimetric thermogram) (room temperature to 350° C.): > 200 °C
Structure (SMILES): C=C1/C(=C\C=C2/CCC[C@]3(C)[C@@H]([C@H](C)CCCC(C)C)CC[C@@H]23)C[C@@H](O)C[C@@H]1O [1α-hydroxy-vitamin D3, 1α, 3β,5Z,7E-9,10-secocholesta-5,7,10(19)-triene-1,3-diol]
